Assay results: patent US20140335050A1, “METHODS, COMPOSITIONS, AND KITS FOR THE TREATMENT OF CANCER” (The General Hospital Corporation, priority 2011, published 2014)

Test system: MU89 cell line
Experiment: Western blot (BRAF, Melan-A/MART-1, TRP-2, phosphorylated MEK and ERK)
Format: cell-based, human
Experimental: A. Western blot performed on extracts of the MU89 cell line treated as indicated for three days. Extracts were probed with antibodies to BRAF, Melan-A/MART-1, TRP-2, or beta-Actin. 30 μg of total protein was loaded in each lane of the gel. […] B. Protein gel electrophoresis was performed using 30 μg of total protein extracts prepared from the indicated cell lines. Cells were untreated (control) or treated with 0.15 μg/ml of BIIB021 for three days. After transfer Western blots were probed with antibodies to phosphorylated MEK (p-MEK) or β-Actin.
FIG. 17 is a series of Western blots that show changes in protein levels and state of phosphorylation after treatment with an Hsp90 inhibitor. A primary Anti BRAF (H145) antibody was used at a 1:5000 dilution. A secondary Goat anti rabbit antibody was used at a dilution of 1:5000. […]
To address the effect of Hsp90 inhibition on the MAP kinase pathway, protein levels and signaling activity (protein phosphorylation levels) of the proteins in this pathway were analyzed directly. […]
Cell lysates were prepared using RIPA buffer from Santa Cruz (Santa Cruz, Calif.) containing protease and phosphatase inhibitors. Protein concentrations were determined using Bradford assay from BioRad (Hercules, Calif.). […] Sizes of proteins were determined by comparison to the Broad prestained protein standard ladder from BioRad (Hercules, Calif.).

## CO[C@H]1/C=C\C=C(/C)C(=O)NC2=CC(=O)C(NCCN3CCCC3)=C(C[C@@H](C)C[C@H](OC)[C@H](O)[C@@H](C)/C=C(\C)[C@@H]1OC(N)=O)C2=O [17-AEP]
3 days
  BRAF protein level (Western blot): reduces levels of BRAF
3 days (FIG. 17)
  Phosphorylated MEK and Phosphorylated ERK levels (Western blot): decreased levels
